Source: PubChem BioAssay AID256 (DTP/NCI, 2004)
Where “and” joins values, the source holds several entries; their conditions need not be identical. Identical values can stand only once. Toxic doses and inconclusive results are not listed. Rule for the calls: active = survival T/C of 150% or more; inactive = T/C below 125% in these data.

Tested on: CD2F1 mice, L1210 leukemia ip, survival T/C
Experiment: NCI In Vivo Anticancer Drug Screen. Data for tumor model L1210 Leukemia (intraperitoneal) in CD2F1 (CDF1) mice
Settings: higher = longer survival
Summary of the method: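 Ratio T/C, where T is the treated-group value and C the vehicle-dosed control value, from mice implanted with a transplantable tumor.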

[1] = endpoint: mean survival time, dose: 100.0 mg/kg/injection, schedule: Q01DX009 (ip), vehicle: saline with Tween-80
[2] = endpoint: mean survival time, dose: 200.0 mg/kg/injection, schedule: Q01DX009 (ip), vehicle: saline with Tween-80
[3] = endpoint: mean survival time, dose: 400.0 mg/kg/injection, schedule: Q01DX009 (ip), vehicle: saline with Tween-80
[4] = endpoint: mean survival time, dose: 100.0 mg/kg/injection, schedule: Q04DX003 (ip), vehicle: saline with Tween-80
[5] = endpoint: mean survival time, dose: 200.0 mg/kg/injection, schedule: Q04DX003 (ip), vehicle: saline with Tween-80
[6] = endpoint: mean survival time, dose: 400.0 mg/kg/injection, schedule: Q04DX003 (ip), vehicle: saline with Tween-80

Measured: T/C

Cc1ccc(Cc2cc(=O)[nH]c(=O)[nH]2)cc1
inactive: endpoint: mean survival time, dose: 25.0 mg/kg/injection, schedule: Q01DX009 (ip), vehicle: Klucel (hydroxypropylcellulose) (HPC) 96 % of control | endpoint: mean survival time, dose: 50.0 mg/kg/injection, schedule: Q01DX009 (ip), vehicle: Klucel (hydroxypropylcellulose) (HPC) 100 % of control | endpoint: mean survival time, dose: 100.0 mg/kg/injection, schedule: Q01DX009 (ip), vehicle: Klucel (hydroxypropylcellulose) (HPC) 94 % of control and 96 % of control

C1CCC2[N-]CCCC2C1.C1CCC2[N-]CCCC2C1.[Br][Pt+2][Br] (centres undefined)
inactive: endpoint: median survival time, dose: 3.12 mg/kg/injection, schedule: Q04DX003 (ip), vehicle: saline 105 % of control | endpoint: median survival time, dose: 6.25 mg/kg/injection, schedule: Q04DX003 (ip), vehicle: saline 117 % of control | endpoint: median survival time, dose: 12.5 mg/kg/injection, schedule: Q04DX003 (ip), vehicle: saline 114 % of control | endpoint: median survival time, dose: 25.0 mg/kg/injection, schedule: Q04DX003 (ip), vehicle: saline 103 % of control | endpoint: median survival time, dose: 50.0 mg/kg/injection, schedule: Q04DX003 (ip), vehicle: saline 102 % of control | endpoint: median survival time, dose: 100.0 mg/kg/injection, schedule: Q04DX003 (ip), vehicle: saline 104 % of control | endpoint: median survival time, dose: 200.0 mg/kg/injection, schedule: Q04DX003 (ip), vehicle: saline 95 % of control

COc1ccc(/C(C)=N/N=C\c2cc(OC)c(OC)c(OC)c2)cc1
inactive: [1] 91 % of control | [2] 89 % of control | [3] 88 % of control

Cc1cccc(S(=O)(=O)N(C)C)c1
inactive: [1] 95 % of control | [4] 94 % of control | [2] 95 % of control | [5] 92 % of control | [3] 92 % of control | [6] 96 % of control

Ic1cccs1
inactive: endpoint: mean survival time, dose: 100.0 mg/kg/injection, schedule: Q01DX001 (ip), vehicle: saline 95 % of control

CS(=O)CCO (centres undefined)
inactive: endpoint: mean survival time, dose: 100.0 mg/kg/injection, schedule: Q04DX002 (ip), vehicle: saline 93 % of control | endpoint: mean survival time, dose: 200.0 mg/kg/injection, schedule: Q04DX002 (ip), vehicle: saline 107 % of control | endpoint: mean survival time, dose: 400.0 mg/kg/injection, schedule: Q04DX002 (ip), vehicle: saline 104 % of control

CC(=O)OC1CCC2(C)C(CCC3C2C(=O)C(OC(C)=O)C2(C)C3CC3OC4(CCC(C)CO4)C(C)C32)C1 (centres undefined)
inactive: [4] 87 % of control | [5] 87 % of control | [6] 89 % of control

CC(C)CC(NC(=O)CCl)C(=O)O (centres undefined)
inactive: [1] 101 % of control | [4] 97 % of control | [2] 96 % of control | [5] 98 % of control | [3] 101 % of control | [6] 96 % of control

CCCCCCCCCCNC(=O)C[n+]1cccc(C(=O)N(C)C)c1
inactive: endpoint: mean survival time, dose: 12.5 mg/kg/injection, schedule: Q01DX009 (ip), vehicle: saline sonified 100 % of control | endpoint: mean survival time, dose: 12.5 mg/kg/injection, schedule: Q04DX003 (ip), vehicle: saline 95 % of control | endpoint: mean survival time, dose: 25.0 mg/kg/injection, schedule: Q01DX009 (ip), vehicle: saline sonified 97 % of control | endpoint: mean survival time, dose: 25.0 mg/kg/injection, schedule: Q04DX003 (ip), vehicle: saline 97 % of control | endpoint: mean survival time, dose: 50.0 mg/kg/injection, schedule: Q01DX009 (ip), vehicle: saline sonified 102 % of control | endpoint: mean survival time, dose: 50.0 mg/kg/injection, schedule: Q04DX003 (ip), vehicle: saline 101 % of control

Cc1cc(=O)cc(C)n1C
inactive: [4] 98 % of control | [5] 97 % of control | [6] 94 % of control

CC(C)C1(C)NC(=O)NC1=O (centres undefined)
inactive: endpoint: mean survival time, dose: 100.0 mg/kg/injection, schedule: Q01DX009 (ip), vehicle: saline 105 % of control | endpoint: mean survival time, dose: 200.0 mg/kg/injection, schedule: Q01DX009 (ip), vehicle: saline 94 % of control | endpoint: mean survival time, dose: 400.0 mg/kg/injection, schedule: Q01DX009 (ip), vehicle: saline 98 % of control

CC1(CO)CCCC2(C)C3=CC(=O)CCC3CCC12 (centres undefined)
inactive: endpoint: mean survival time, dose: 100.0 mg/kg/injection, schedule: Q01DX001 (ip), vehicle: saline with Tween-80 95 % of control | endpoint: mean survival time, dose: 200.0 mg/kg/injection, schedule: Q01DX001 (ip), vehicle: saline with Tween-80 101 % of control | endpoint: mean survival time, dose: 400.0 mg/kg/injection, schedule: Q01DX001 (ip), vehicle: saline with Tween-80 97 % of control

CN(C)S(=O)(=O)c1ccc(Cl)c([N+](=O)[O-])c1
inactive: endpoint: mean survival time, dose: 100.0 mg/kg/injection, schedule: Q04DX002 (ip), vehicle: Klucel (hydroxypropylcellulose) (HPC) 106 % of control | endpoint: mean survival time, dose: 200.0 mg/kg/injection, schedule: Q04DX002 (ip), vehicle: Klucel (hydroxypropylcellulose) (HPC) 106 % of control
